# What was measured:
# C57BL/6 mice [1] = assay: Hepatic steatosis in oral PN diet fed C57BL/6 mice, initial experiment (Oil Red O); format: in vivo, mouse; conditions: 19 days, 0.3 mmol/kg bw day in MCT by orogastric gavage
# From the text: (§1) Male C57BL/6 mice, 6 to 8 weeks old at initiation of the experiments, were used for all experimental groups. Mice were fed either an ad libitum diet of standard rodent chow (calorie composition: 26% protein, 14% fat, 60% carbohydrates) and water or a parenteral nutrition (PN) solution that mimics the PN diet used in neonatal intensive care units. The PN solution was a fat-free, high-carbohydrate liquid diet (20% dextrose, 2% essential and nonessential amino acids, 0.2% pediatric trace elements, 0.5% pediatric multivitamins, 30 mEq of sodium, 20 mEq of potassium, 15 mEq of calcium (as calcium gluconate), 10 mEq of magnesium, 10 mEq of phosphate, 5 mEq of acetate, and 30 mEq of chloride per liter) administered as a single 50 mL bottle per cage which mice consumed ad libitum. […] Prince et al., JPEN J Parenter Enteral Nutr., 2014; 38(5): 608-616.
# In the initial experiment, only Compound A was tested. The results of this experiment are described in Example 14.
# Male C57BL/6 mice, 6 weeks old at initiation of experiments, were divided into three groups (10 mice per group). One group was fed an ad libitum diet of standard rodent chow and water. The group fed standard rodent chow received no additional treatments during the experimental period and served as a negative control group. The two other groups were fed the above-described PN diet. […]
# C57BL/6 mice [2] = assay: Hepatic steatosis and organ mass in oral PN diet fed C57BL/6 mice, subsequent experiment at two dosages (H&E); format: in vivo, mouse; conditions: 19 days
# From the text: as §1
# In a subsequent experiment, both Compound A and Compound B were tested at two dosages. The results of this experiment are described in Example 15.
# Male C57BL/6 mice, 6 to 8 weeks old at initiation of the experiments, were used for all experimental groups. One group was fed an ad libitum diet of standard rodent chow and water. The group fed standard rodent chow received no additional treatments during the experimental period and served as a negative control group. Seven other groups (10 mice per group) were fed the PN solution described above ad libitum.
# Of the seven groups that received the PN diet, each group received one of the following orogastric protocols administered every other day over 19 days: • (1) Saline: saline solution administered isovolumetric with the Omegaven® group; • (2) MCT: medium-chain triglyceride oil (MCT) (Nestle™ HealthCare Nutrition, Florham Park, NJ), at a dose of 7.4 g of fat/kg body weight; • (3) Omegaven®: Omegaven® (commercial fish oil lipid emulsion) at a dose of 2.4 g fat/kg body weight; • (4) Compound A LOW: Compound A at a dose of 0.3 mmol/kg bw day (diluted in MCT to 0.0375 mmol/mL, resulting in administration of 7.4 g of MCT/kg weight); • (5) Compound A HI: Compound A at a dose of 0.6 mmol/kg bw day (diluted in MCT to 0.075 mmol/mL, resulting in administration of 7.4 g of MCT/kg weight); • (6) Compound B LOW: Compound B at a dose of 0.3 mmol/kg bw day (diluted in MCT to 0.0375 mmol/mL, resulting in administration of 7.4 g of MCT/kg weight); and • (7) Compound B HI: Compound B at a dose of 0.6 mmol/kg bw day (diluted in MCT to 0.075 mmol/mL, resulting in administration of 7.4 g of MCT/kg weight).
# After 19 days of treatment, organs were harvested, including the liver, kidney, and spleen, which were analyzed for relative weight between each group. Livers were also fixed and frozen on dry ice, then stored at −80° C. for hematoxylin and eosin (H&E) stain analysis and Oil Red O analysis.
# [3] = oral PN diet, high and low dosages, FIG. 18
compound,measurement,setting,value
"CCCCCOc1cccc(C(=O)O)c1C [Compound A, 2-methyl-3-(pentyloxy)benzoic acid]",development of steatosis induced by an oral PN diet (Red Oil O stain in isolated liver sections),C57BL/6 mice [1]; FIG. 13,prevented the development of steatosis
same,liver architecture,C57BL/6 mice [1]; oral PN diet,Normal liver architecture
same,development of steatosis induced by an oral PN diet (H&E stain in isolated liver sections),"C57BL/6 mice [2]; 0.3 and 0.6 mmol/kg bw day in MCT by orogastric gavage, FIGS. 14-17",prevented the development of steatosis
same,body mass vs chow-fed or PN-fed saline groups,C57BL/6 mice [2]; [3],not significantly different
same,liver/body mass vs chow-fed or PN-fed saline groups,C57BL/6 mice [2]; [3],not significantly different
same,spleen/body mass vs chow-fed or PN-fed saline groups,C57BL/6 mice [2]; [3],not significantly different

# Source: patent publication US12473249B2, “Aromatic compounds and pharmaceutical uses thereof” (BASF AS, priority 2018, dated 2025)
